Source: patent US9447044B2, “Thioaryl derivatives as GPR120 agonists” (LG LIFE SCIENCES LTD., priority 2012, dated 2016)

Biological target: T1, hGPR120 (Homo sapiens, UniProt Q5NUL3)
T1 construct: expressed in transfected cells; host or cells: CHO-K1
T1 sequence (Q5NUL3 1-361): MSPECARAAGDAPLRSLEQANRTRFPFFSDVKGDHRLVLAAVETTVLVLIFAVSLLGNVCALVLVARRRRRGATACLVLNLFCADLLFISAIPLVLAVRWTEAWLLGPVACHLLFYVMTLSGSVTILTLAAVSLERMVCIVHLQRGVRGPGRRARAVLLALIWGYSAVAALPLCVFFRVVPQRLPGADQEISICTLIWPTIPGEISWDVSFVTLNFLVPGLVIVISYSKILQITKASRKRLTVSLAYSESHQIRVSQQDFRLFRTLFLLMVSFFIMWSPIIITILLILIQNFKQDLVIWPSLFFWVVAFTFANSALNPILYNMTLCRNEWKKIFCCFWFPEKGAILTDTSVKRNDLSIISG
Assay: Measurement of activity of GPR120 agonist (cell-based assay), calcium fluorescence
Conditions: CHO-K1 cells expressing Ga16 and hGPR120; Calcium 5 dye fluorescence; activity class
Outline: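 CHO-K1 cells co-expressing Gα16 and hGPR120, loaded with Calcium 5 dye for 1 h at 37° C, received serially diluted agonists (final 0.5% DMSO). Fluorescence (Ex 485/Em 525 nm) was expressed as relative percent over 0.1% DMSO-only wells; activity binned as A >20 μM, B 20–2 μM, C 2–0.2 μM, D <0.2 μM.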

| SMILES | EC50 [nM] |
| --- | --- |
| CCCSc1ncccc1COc1ccc(C2CC2C(=O)O)c(C)c1C (centres unmarked) [Example 112, 2-[2,3-dimethyl-4-(2-propylsulfanyl-pyridin-3-ylmethoxy)-phenyl]-cyclopropane carboxylic acid] | > 20000 |
| Cc1c(OCc2cccnc2SC2CCC2)ccc(C2CC2C(=O)O)c1C (centres unmarked) [Example 113, 2-[4-(2-cyclobutylsulfanyl-pyridin-3-ylmethoxy)-2,3-dimethyl-phenyl]-cyclopropane carboxylic acid] | > 20000 |
| Cc1c(OCc2cccc(SC(C)C)n2)ccc(C2CC2C(=O)O)c1C (centres unmarked) [Example 114, 2-[4-(6-isopropylsulfanyl-pyridin-2-ylmethoxy)-2,3-dimethyl-phenyl]-cyclopropane carboxylic acid] | 2000 to 20000 |
| CC(C)Sc1ncccc1COc1c(F)cc(CC2CC2C(=O)O)cc1F (centres unmarked) [Example 116, 2-[3,5-difluoro-4-(2-isopropylsulfanyl-pyridin-3-ylmethoxy)-benzyl]-cyclopropane carboxylic acid] | 200 to 2000 |
| O=C(O)CC1CC1c1ccc(OCc2cccc(SC3CCCC3)n2)c(F)c1 (centres unmarked) [Example 120, {2-[4-(6-cyclopentylsulfanyl-pyridin-2-ylmethoxy)-3-fluoro-phenyl]-cyclopropyl}-acetic acid] | 200 to 2000 |
| O=C(O)CCc1ccc(OCc2cccc(SC3CCC3)n2)c(Cl)c1 [Example 159, 3-[3-chloro-4-(6-cyclobutylsulfanyl-pyridin-2-ylmethoxy)-phenyl]-propionic acid] | < 200 |
| Cc1ccc(COc2ccc(CCC(=O)O)cc2Cl)c(SC2CCCC2)n1 [Example 161, 3-[3-chloro-4-(2-cyclopentylsulfanyl-6-methyl-pyridin-3-ylmethoxy)-phenyl]-propionic acid] | 200 to 2000 |
| CC(C)Sc1ncccc1COc1ccc(C2CC2C(=O)O)cc1F (centres unmarked) [Example 162, 2-[3-fluoro-4-(2-isopropylsulfanyl-pyridin-3-ylmethoxy)-phenyl]-cyclopropane carboxylic acid] | < 200 |

Now from value to compound:

| EC50 [nM] | SMILES |
| --- | --- |
| < 200 | O=C(O)CC1COc2c1cc(F)c(OCc1cccnc1SC1CCC1)c2F (centres unmarked) [Example 111, [6-(2-cyclobutylsulfanyl-pyridin-3-ylmethoxy)-5,7-difluoro-2,3-dihydro-benzofuran-3-yl]-acetic acid] |
| < 200 | O=C(O)C1CC1Cc1cc(F)c(OCc2cccc(SC3CCC3)n2)c(F)c1 (centres unmarked) [Example 115, 2-[4-(6-cyclobutylsulfanyl-pyridin-2-ylmethoxy)-3,5-difluoro-benzyl]-cyclopropane carboxylic acid] |
| < 200 | CCCSc1ncccc1COc1ccc(C2CC2CC(=O)O)cc1F (centres unmarked) [Example 121, {2-[3-fluoro-4-(2-propylsulfanyl-pyridin-3-ylmethoxy)-phenyl]-cyclopropyl}-acetic acid] |
| < 200 | O=C(O)Cc1coc2c(F)c(OCc3cccnc3SC3CCCC3)c(F)cc12 [Example 122, [6-(2-cyclopentylsulfanyl-pyridin-3-ylmethoxy)-5,7-difluoro-benzofuran-3-yl]-acetic acid] |
| < 200 | O=C(O)CC1COc2c1cc(F)c(OCc1cccnc1SC1CCCC1)c2F (centres unmarked) [Example 123, [6-(2-cyclopentylsulfanyl-pyridin-3-ylmethoxy)-5,7-difluoro-2,3-dihydro-benzofuran-3-yl]-acetic acid] |
| < 200 | O=C(O)C1CC1c1ccc(OCc2cccnc2SCC2CC2)c(Cl)c1 (centres unmarked) [Example 127, 2-[3-chloro-4-(2-cyclopropylmethylsulfanyl-pyridin-3-ylmethoxy)-phenyl]-cyclopropane carboxylic acid] |
| < 200 | O=C(O)C1CC1c1ccc(OCc2cccc(SC3CCC3)n2)c(Cl)c1 (centres unmarked) [Example 132, 2-[3-chloro-4-(6-cyclobutylsulfanyl-pyridin-2-ylmethoxy)-phenyl]-cyclopropane carboxylic acid] |
| < 200 | CCCSc1ncccc1COc1c(F)cc(C2CC2C(=O)O)cc1F (centres unmarked) [Example 139, 2-[3,5-difluoro-4-(2-propylsulfanyl-pyridin-3-ylmethoxy)-phenyl]-cyclopropane carboxylic acid] |
| < 200 | CC(C)Sc1cccc(COc2ccc(CCC(=O)O)cc2Cl)n1 [Example 141, 3-[3-chloro-4-(6-isopropylsulfanyl-pyridin-2-ylmethoxy)-phenyl]-propionic acid] |
| < 200 | O=C(O)CCc1ccc(OCc2cccc(SC3CCCC3)n2)c(Cl)c1 [Example 143, 3-[3-chloro-4-(6-cyclopentylsulfanyl-pyridin-2-ylmethoxy)-phenyl]-propionic acid] |
| < 200 | CCCSc1ncccc1COc1ccc(CCC(=O)O)cc1F [Example 144, 3-[3-fluoro-4-(2-propylsulfanyl-pyridin-3-ylmethoxy)-phenyl]-propionic acid] |
| < 200 | O=C(O)CCc1ccc(OCc2cccnc2SC2CCC2)c(F)c1 [Example 145, 3-[4-(2-cyclobutylsulfanyl-pyridin-3-ylmethoxy)-3-fluoro-phenyl]-propionic acid] |
| < 200 | O=C(O)CCc1ccc(OCc2cccnc2SC2CCCC2)c(F)c1 [Example 146, 3-[4-(2-cyclopentylsulfanyl-pyridin-3-ylmethoxy)-3-fluoro-phenyl]-propionic acid] |
| < 200 | O=C(O)CCc1ccc(OCc2cccc(SC3CCC3)n2)c(F)c1 [Example 148, 3-[4-(6-cyclobutylsulfanyl-pyridin-2-ylmethoxy)-3-fluoro-phenyl]-propionic acid] |
| < 200 | CC(C)Sc1cccc(COc2ccc(CCC(=O)O)cc2F)n1 [Example 149, 3-[3-fluoro-4-(6-isopropylsulfanyl-pyridin-2-ylmethoxy)-phenyl]-propionic acid] |
| < 200 | O=C(O)CCc1ccc(OCc2cccc(SC3CCCC3)n2)c(F)c1 [Example 150, 3-[4-(6-cyclopentylsulfanyl-pyridin-2-ylmethoxy)-3-fluoro-phenyl]-propionic acid] |
| < 200 | O=C(O)CCc1ccc(OCc2cccc(SCC3CC3)n2)c(F)c1 [Example 151, 3-[4-(6-cyclopropylmethylsulfanyl-pyridin-2-ylmethoxy)-3-fluoro-phenyl]-propionic acid] |
| < 200 | CC(C)Sc1cccc(COc2c(F)cc(C3CC3C(=O)O)cc2F)n1 (centres unmarked) [Example 152, 2-[3,5-difluoro-4-(6-isopropylsulfanyl-pyridin-2-ylmethoxy)-phenyl]-cyclopropane carboxylic acid] |
| < 200 | O=C(O)C1CC1c1cc(F)c(OCc2cccc(SCC3CC3)n2)c(F)c1 (centres unmarked) [Example 153, 2-[4-(6-cyclopropylmethylsulfanyl-pyridin-2-ylmethoxy)-3,5-difluoro-phenyl]-cyclopropane carboxylic acid] |
| < 200 | O=C(O)C1CC1c1cc(F)c(OCc2cccc(SC3CCC3)n2)c(F)c1 (centres unmarked) [Example 155, 2-[4-(6-cyclobutylsulfanyl-pyridin-2-ylmethoxy)-3,5-difluoro-phenyl]-cyclopropane carboxylic acid] |
| < 200 | O=C(O)CCc1ccc(OCc2cccnc2SCC2CC2)c(Cl)c1 [Example 157, 3-[3-chloro-4-(2-cyclopropylmethylsulfanyl-pyridin-3-ylmethoxy)-phenyl]-propionic acid] |
| < 200 | O=C(O)CCc1ccc(OCc2cccnc2SC2CCC2)c(Cl)c1 [Example 158, 3-[3-chloro-4-(2-cyclobutylsulfanyl-pyridin-3-ylmethoxy)-phenyl]-propionic acid] |

Same assay, conditions: CHO-K1 cells expressing Ga16 and hGPR120; Calcium 5 dye fluorescence; numeric value

| EC50 [nM] | SMILES |
| --- | --- |
| 108 | CCCSc1ncccc1COc1c(F)cc(CC2CC2C(=O)O)cc1F (centres unmarked) [Example 117, 2-[3,5-difluoro-4-(2-propylsulfanyl-pyridin-3-ylmethoxy)-benzyl]-cyclopropane carboxylic acid] |
| 135 | Cc1c(OCc2cccnc2SC2CCCC2)ccc2c(CC(=O)O)coc12 [Example 118, [6-(2-cyclopentylsulfanyl-pyridin-3-ylmethoxy)-7-methyl-benzofuran-3-yl]-acetic acid] |
| 91 | CC(C)Sc1ncccc1COc1ccc(C2CC2C(=O)O)cc1Cl (centres unmarked) [Example 126, 2-[3-chloro-4-(2-isopropylsulfanyl-pyridin-3-ylmethoxy)-phenyl]-cyclopropane carboxylic acid] |
| 42 | O=C(O)C1CC1c1ccc(OCc2cccc(SCC3CC3)n2)c(Cl)c1 (centres unmarked) [Example 128, 2-[3-chloro-4-(6-cyclopropylmethylsulfanyl-pyridin-2-ylmethoxy)-phenyl]-cyclopropane carboxylic acid] |
| 56 | CC(C)Sc1ncccc1COc1c(F)cc(C2CC2C(=O)O)cc1F (centres unmarked) [Example 138, 2-[3,5-difluoro-4-(2-isopropylsulfanyl-pyridin-3-ylmethoxy)-phenyl]-cyclopropane carboxylic acid] |
| 11 | O=C(O)CCc1ccc(OCc2cccc(SCC3CC3)n2)c(Cl)c1 [Example 142, 3-[3-chloro-4-(6-cyclopropylmethylsulfanyl-pyridin-2-ylmethoxy)-phenyl]-propionic acid] |
| 54 | O=C(O)CCc1ccc(OCc2cccnc2SCC2CC2)c(F)c1 [Example 147, 3-[4-(2-cyclopropylmethylsulfanyl-pyridin-3-ylmethoxy)-3-fluoro-phenyl]-propionic acid] |
| 202 | Cc1ccc(COc2ccc(CCC(=O)O)cc2Cl)c(SC(C)C)n1 [Example 160, 3-[3-chloro-4-(2-isopropylsulfanyl-6-methyl-pyridin-3-ylmethoxy)-phenyl]-propionic acid] |
